Source: US9296776B2, “Substituted nucleoside derivatives with antiviral and antimicrobial properties” (Eastern Virginia Medical School, priority 2007, dated 2016)
≈ marks a conversion by molar mass, not a printed value. Read-outs that look alike come from different tables or passages of the source.

Legend:
[1] = system: HIV-1 BaL (cell-free virus); test: Single-round infection assay, cell-free virus BaL; format: cell-based
[2] = system: HIV-1 clinical isolate R5 = 92TH014; test: Antiviral activity against HIV-1 clinical isolate R5, p24 level (ELISA); format: cell-based; conditions: Table 5, 6 h incubation then 6 days
[3] = system: Multidrug resistant virus 7324-1; test: Antiviral activity against multidrug resistant HIV-1 clinical isolate, p24 level (ELISA); format: cell-based; conditions: Table 5, MDR = 7324-1, 6 h incubation then 6 days
[4] = system: HIV-1 IIIB (cell-free virus); test: microbe, parasite or virus in culture; format: cell-based; conditions: for EC50: read-out: EC50 Cell-Free Virus IIIB
[5] = system: Cell-associated HIV-1, SupT1 (IIIB); test: Single-round infection assay, cell-associated virus SupT1 (IIIB); format: cell-based
[6] = system: CCRF-CEM cell line; format: cell-based, human
Experimental: Cells were incubated with 10 μM of DMSO, FAM, KPH-1.5 and KPH-1.6 for 1 h and then imaged using a light microscope (ZEISS Axioplan 2) equipped with transmitted light microscopy with a differential-interference contrast method and an Achroplan 40× objective. […] The results further confirm the higher cellular uptake of KPH-1.6, a fatty acyl derivative of FLT, in comparison to KPH-1.5 and FAM alone. Similar results were also observed with fluorescein-substituted derivative of 3TC.

[7] = in vitro
[8] = system: H. ducreyi Strain HMC 64; test: Antibacterial activity (MIC), strain HMC 64; format: cell-based, Haemophilus ducreyi; conditions: [Haemophilus] ducreyi, read-out: MIC (minimum inhibitory concentration)
[9] = system: HIV-1 clinical isolate R5 = 92TH014; test: Antiviral activity against HIV-1 clinical isolate R5, RT endpoint; format: cell-based; conditions: Human immunodeficiency virus 1, Table 2, 6 h incubation then 6 days, read-out: IC50
[10] = system: Multidrug resistant virus 7324-1; test: Antiviral activity against multidrug resistant HIV, RT endpoint; format: cell-based, HIV-1; conditions: Human immunodeficiency virus 1
[11] = system: H. ducreyi Strain HMC56; test: Antibacterial activity (MIC), strain HMC56; format: cell-based, Haemophilus ducreyi; conditions: [Haemophilus] ducreyi, read-out: MIC (minimum inhibitory concentration)
[12] = system: H. ducreyi Strain HMC 62; test: Antibacterial activity (MIC), strain HMC 62; format: cell-based, Haemophilus ducreyi; conditions: [Haemophilus] ducreyi, read-out: MIC (minimum inhibitory concentration)

Sodium Cellulose Sulfate-Acetate-AZT (1.73%) [CS-Ac-AZT]
EC50 Cell-Free Virus BaL ([1]; Table 4): 8.1 µg/mL
IC50 [2]: 3.52 µg/mL
IC50 [3]: 4.22 µg/mL
EC50 Cell-Free Virus IIIB ([4]; Table 4): 2.5 µg/mL
potency against cell-free virus relative to AZT, in moles ([4]; based on CS ~2×10^6 Daltons): 5 orders of magnitude
EC50 Cell-Associated Virus SupT1-IIIB ([5]; Table 4): 5.6 µg/mL

5(6)-carboxyfluorescein [FAM, reference compound]
cell fluorescence by microscopy [6]: no significant fluorescence

Cc1ccc(C(=O)Nc2ccc(S(=O)(=O)O)c3cc(S(=O)(=O)O)cc(S(=O)(=O)O)c23)cc1NC(=O)c1cccc(NC(=O)Nc2cccc(C(=O)Nc3cc(C(=O)Nc4ccc(S(=O)(=O)O)c5cc(S(=O)(=O)O)cc(S(=O)(=O)O)c45)ccc3C)c2)c1 [Suramin, reference compound]
EC50 ([1]; Human immunodeficiency virus 1, BAL, Table 6): 1 µg/mL (≈ 0.771 µM)
EC50 ([4]; Human immunodeficiency virus 1, IIIB): 49.1 µg/mL (≈ 37.8 µM)
CC50 [7]: > 100 µg/mL

Cc1cn([C@H]2C[C@H](N=[N+]=[N-])[C@@H](CO)O2)c(=O)[nH]c1=O [3′-azido-2′,3′-dideoxythymidine (AZT), 3′-azido-2′,3′-dideoxythymidine, reference compound]
MIC [8]: 500 µg/mL (≈ 1870 µM)
IC50 ([1]; Human immunodeficiency virus 1, BAL, Table 1, 2 h incubation, wash, 48 h culture, read-out: IC50 Cell-Free Virus BaL): 0.8 µg/mL (≈ 2.99 µM)
EC50 ([1]; Human immunodeficiency virus 1, BAL, Table 4): 4.2 µg/mL (≈ 15.7 µM)
IC50 [9]: 0.02 µg/mL (≈ 0.0748 µM)
IC50 [10]: 0.33 µg/mL (≈ 1.23 µM)
MIC [11]: 125 µg/mL (≈ 468 µM)
IC50 ([4]; Human immunodeficiency virus 1, IIIB, Table 1, 2 h incubation, wash, 48 h culture, read-out: IC50 Cell-Free Virus IIIB): 9.2 µg/mL (≈ 34.4 µM)
EC50 ([4]; Human immunodeficiency virus 1, IIIB, Table 4): 2.4 µg/mL (≈ 8.98 µM)
CC50 [7]: > 100 µg/mL
MIC [12]: 750 µg/mL (≈ 2810 µM)
IC50 ([5]; Human immunodeficiency virus 1, IIIB, SUP-T1, Table 1, 2 h incubation, wash, 48 h culture, read-out: IC50 Cell-Associated Virus SupT1 (IIIB)): > 100 µg/mL
EC50 ([5]; Human immunodeficiency virus 1, IIIB, SUP-T1, Table 4): > 100 µg/mL

Sodium Cellulose Sulfate-Acetate-FLT (1.45%) [CS-Ac-FLT]
EC50 Cell-Free Virus BaL ([1]; Table 4): 1.5 µg/mL
IC50 [2]: 2.67 µg/mL
IC50 [3]: 0.50 µg/mL
EC50 Cell-Free Virus IIIB ([4]; Table 4): 2.3 µg/mL
EC50 Cell-Associated Virus SupT1-IIIB ([5]; Table 4): 5.8 µg/mL

3′-fluoro-2′,3′-dideoxy-5′-O-(12-(N-5(6)carboxylfluoresceinaminododecanoyl)thymidine
IC50 Cell-Free Virus IIIB ([4]; Table 1, 2 h incubation, wash, 48 h culture): 4.3 µg/mL
cell fluorescence by microscopy [6]: showed fluorescence
